Experimental data from ChEMBL document CHEMBL1201862, “PubChem BioAssay data set” (2004).
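A five-concentration, 48-hour dose response in 96-well plates underlies each endpoint, interpolated linearly between surrounding concentrations. The concentration for 50% growth inhibition is given as GI50.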 Calls of active or inactive are those of the source. Cut-off read from the data, not from the text of the source: active = GI50 up to about 1.1 µM and inactive = higher.

Columns and labels:
Assay in all cases: NCI-60 cell line screen, 48 h
Malme-3M = test system: Malme-3M
UO-31 = test system: UO-31
OVCAR-3 = test system: OVCAR-3
HCT-116 = test system: HCT-116
HOP-92 = test system: HOP-92
OVCAR-4 = test system: OVCAR-4
SNB-75 = test system: SNB-75
HCT-15 = test system: HCT-15
RPMI-8226 = test system: RPMI-8226
Hs-578T = test system: Hs-578T
OVCAR-8 = test system: OVCAR-8
HOP-62 = test system: HOP-62
PC-3 = test system: PC-3
ACHN = test system: ACHN
HCC 2998 = test system: HCC 2998
MDA-MB-435 = test system: MDA-MB-435
A498 = test system: A498
SF-539 = test system: SF-539
OVCAR-5 = test system: OVCAR-5
SNB-19 = test system: SNB-19

Row | SMILES | GI50 (Malme-3M) | GI50 (UO-31) | GI50 (OVCAR-3) | GI50 (HCT-116) | GI50 (HOP-92) | GI50 (OVCAR-4) | GI50 (SNB-75) | GI50 (HCT-15) [µM] | GI50 (RPMI-8226) | GI50 (Hs-578T) | GI50 (OVCAR-8) | GI50 (HOP-62) | GI50 (PC-3) | GI50 (ACHN) | GI50 (HCC 2998) | GI50 (MDA-MB-435) | GI50 (A498) | GI50 (SF-539) | GI50 (OVCAR-5) | GI50 (SNB-19)
1 | COc1cc(/C=C\c2ccc(SC)cc2)cc(OC)c1OC | 0.381 µM (active) | 0.104 µM (active) | 0.0128 µM (active) | < 0.0158 µM (active) | 0.498 µM (active) | 10.7 µM (inactive) | < 0.01 µM (active) | 0.0329 | 0.0331 µM (active) | 0.0132 µM (active) | 0.0231 µM (active) | 0.0175 µM (active) | < 0.01 µM (active) | 0.467 µM (active) | < 0.01 µM (active) | < 0.01 µM (active) | 0.883 µM (active) | < 0.0145 µM (active) | 1.15 µM (inactive) | 0.0247 µM (active)
2 | O=C1C2C3C=CC(C2C(=O)N1CN1CCOCC1)C1C2C(=O)N(CN4CCOCC4)C(=O)C2C31 (stereo not given) | > 100 µM (inactive) | > 54 µM (inactive) | > 55.7 µM (inactive) | > 44.9 µM (inactive) | > 62.1 µM (inactive) | > 43.9 µM (inactive) | > 47.3 µM (inactive) | > 42.4 | 34.6 µM (inactive) | > 100 µM (inactive) | > 48.3 µM (inactive) | > 100 µM (inactive) | > 100 µM (inactive) | > 53.3 µM (inactive) | > 46.5 µM (inactive) | > 100 µM (inactive) | > 57.4 µM (inactive) | > 56.8 µM (inactive) | > 59.2 µM (inactive) | > 48 µM (inactive)
3 | CC(C)C1=Cc2ccc3c(c2C(=O)C1=O)CCCC3 | 2.58 µM (inactive) | 3.31 µM (inactive) | 2.33 µM (inactive) | 1.95 µM (inactive) | 0.998 µM (active) | 1.51 µM (inactive) | 2.05 µM (inactive) | 3.08 | 2.12 µM (inactive) | 20.2 µM (inactive) | 5.64 µM (inactive) | 21.4 µM (inactive) | 13.8 µM (inactive) | 3.49 µM (inactive) | 17.1 µM (inactive) | 0.865 µM (active) | 13.1 µM (inactive) | 8.07 µM (inactive) | 13.9 µM (inactive) | 17.9 µM (inactive)
4 | O=S(=O)(O)c1cc(/N=N/c2cc(S(=O)(=O)O)c3cccnc3c2O)ccc1/C=C/c1ccc(/N=N/c2cc(S(=O)(=O)O)c3cccnc3c2O)cc1S(=O)(=O)O | > 100 µM (inactive) | > 100 µM (inactive) | > 100 µM (inactive) | > 89.1 µM (inactive) | > 72.4 µM (inactive) | > 100 µM (inactive) | > 100 µM (inactive) | > 100 | > 97.7 µM (inactive) | > 100 µM (inactive) | > 100 µM (inactive) | > 100 µM (inactive) | > 100 µM (inactive) | > 100 µM (inactive) | > 100 µM (inactive) | > 100 µM (inactive) | > 100 µM (inactive) | > 100 µM (inactive) | > 100 µM (inactive) | > 100 µM (inactive)
5 | COn1cc(C=O)c2ccccc21 | > 93.8 µM (inactive) | 61.2 µM (inactive) | 36.6 µM (inactive) | > 59 µM (inactive) | > 68.9 µM (inactive) | > 50.5 µM (inactive) | 33.7 µM (inactive) | > 70.5 | > 68.1 µM (inactive) | 37.4 µM (inactive) | > 93.8 µM (inactive) | 81.3 µM (inactive) | > 74.1 µM (inactive) | 32.7 µM (inactive) | 21.8 µM (inactive) | 10.8 µM (inactive) | 1.95 µM (inactive) | > 45.6 µM (inactive) | > 74.6 µM (inactive) | 69.7 µM (inactive)
6 | CN1CCN(C)C12C=c1ccccc1=CC21CC1 | 28.5 µM (inactive) | 40.9 µM (inactive) | 62.1 µM (inactive) | 25.1 µM (inactive) | 28.7 µM (inactive) | 71.3 µM (inactive) | 45.6 µM (inactive) | 32.8 | 30 µM (inactive) | 21.9 µM (inactive) | 53.5 µM (inactive) | > 91.4 µM (inactive) | 32.3 µM (inactive) | 74.8 µM (inactive) | 16.3 µM (inactive) | 22.1 µM (inactive) | > 100 µM (inactive) | 37.9 µM (inactive) | > 100 µM (inactive) | > 83.8 µM (inactive)
7 | NCC(=O)Nc1ccc(S(=O)(=O)O)c2cc(S(=O)(=O)O)cc(S(=O)(=O)O)c12 | > 100 µM (inactive) | > 100 µM (inactive) | > 100 µM (inactive) | > 100 µM (inactive) | > 100 µM (inactive) | > 100 µM (inactive) | > 100 µM (inactive) | > 100 | > 100 µM (inactive) | > 100 µM (inactive) | > 100 µM (inactive) | > 100 µM (inactive) | > 100 µM (inactive) | > 100 µM (inactive) | > 100 µM (inactive) | > 100 µM (inactive) | > 100 µM (inactive) | > 100 µM (inactive) | > 100 µM (inactive) | > 100 µM (inactive)
8 | O=C1Nc2ccccc2/C1=c1\[nH]c(=O)/c(=C\c2ccc(OCc3ccccc3)cn2)[nH]c1=O | 32.4 µM (inactive) | < 0.01 µM (active) | > 100 µM (inactive) | 85.7 µM (inactive) | 26.6 µM (inactive) | 72.4 µM (inactive) | 4.21 µM (inactive) | 41.1 | > 100 µM (inactive) | 21.4 µM (inactive) | 78.7 µM (inactive) | 20 µM (inactive) | > 100 µM (inactive) | 33.7 µM (inactive) | > 100 µM (inactive) | 44.1 µM (inactive) | 27.3 µM (inactive) | 18.2 µM (inactive) | > 100 µM (inactive) | 31.4 µM (inactive)
9 | Cn1c(=S)sc2nc3ccccc3n2c1=S | 13.9 µM (inactive) | 5.55 µM (inactive) | 12.1 µM (inactive) | 2.49 µM (inactive) | 8.93 µM (inactive) | 16 µM (inactive) | 16.5 µM (inactive) | 13.2 | 3.78 µM (inactive) | 21.6 µM (inactive) | 14.3 µM (inactive) | 17 µM (inactive) | 19.6 µM (inactive) | 11.3 µM (inactive) | 19.6 µM (inactive) | 7.45 µM (inactive) | 19.3 µM (inactive) | 12.8 µM (inactive) | 15.3 µM (inactive) | 13.7 µM (inactive)
10 | CC(=N\N=C\c1ccccn1)/C(C)=N/N=C(C)/C(C)=N/N=C(C)/C(C)=N/N=C/c1ccccn1 | > 100 µM (inactive) | > 100 µM (inactive) | > 100 µM (inactive) | > 100 µM (inactive) | > 100 µM (inactive) | > 100 µM (inactive) | > 100 µM (inactive) | > 100 | > 100 µM (inactive) | > 100 µM (inactive) | > 100 µM (inactive) | > 100 µM (inactive) | > 100 µM (inactive) | > 100 µM (inactive) | > 100 µM (inactive) | > 100 µM (inactive) | > 100 µM (inactive) | > 100 µM (inactive) | > 100 µM (inactive) | > 100 µM (inactive)
11 | CC(=N\N=C\c1ccccn1)/C(C)=N/N=C(C)/C(C)=N/N=C/c1ccccn1 | > 100 µM (inactive) | > 100 µM (inactive) | > 100 µM (inactive) | > 100 µM (inactive) | > 100 µM (inactive) | > 100 µM (inactive) | > 100 µM (inactive) | 71.3 | > 100 µM (inactive) | > 100 µM (inactive) | > 100 µM (inactive) | > 100 µM (inactive) | > 100 µM (inactive) | > 100 µM (inactive) | > 100 µM (inactive) | > 100 µM (inactive) | > 100 µM (inactive) | > 100 µM (inactive) | > 100 µM (inactive) | > 100 µM (inactive)
12 | COc1ccc(-c2cc(-c3ccc(Nc4ccnc5cc(C(F)(F)F)ccc45)cc3)[nH]c(=O)c2C#N)c2ccccc12 | > 41.2 µM (inactive) | > 35.6 µM (inactive) | 38.7 µM (inactive) | 17.5 µM (inactive) | > 100 µM (inactive) | > 46 µM (inactive) | 11.2 µM (inactive) | > 100 | > 100 µM (inactive) | 35.7 µM (inactive) | > 46.3 µM (inactive) | 11.2 µM (inactive) | > 100 µM (inactive) | > 32.5 µM (inactive) | > 100 µM (inactive) | > 33.7 µM (inactive) | > 43 µM (inactive) | 16.6 µM (inactive) | > 61.2 µM (inactive) | 18.8 µM (inactive)
13 | CC1(C)C(=O)/C(=C/c2ccccc2)C(C)(C)C1(C)C | > 71.3 µM (inactive) | 52.6 µM (inactive) | > 39.3 µM (inactive) | 38.5 µM (inactive) | > 40 µM (inactive) | > 75.3 µM (inactive) | 46.8 µM (inactive) | 54.1 | 31.4 µM (inactive) | 40.6 µM (inactive) | > 100 µM (inactive) | 40.9 µM (inactive) | 53.7 µM (inactive) | 53.3 µM (inactive) | > 91.4 µM (inactive) | 29.4 µM (inactive) | 36.1 µM (inactive) | > 100 µM (inactive) | > 100 µM (inactive) | > 100 µM (inactive)
14 | CN(C)/C=N/S(=O)(=O)c1nn2c(C=O)c(-c3ccc(-c4ccc([N+](=O)[O-])cc4)o3)nc2s1 | 1.78 µM (inactive) | 1.91 µM (inactive) | 2.07 µM (inactive) | 1.34 µM (inactive) | 1.84 µM (inactive) | 3.54 µM (inactive) | 9.18 µM (inactive) | 2.21 | 0.931 µM (active) | 3.88 µM (inactive) | 8.04 µM (inactive) | 7.43 µM (inactive) | 3.37 µM (inactive) | 1.97 µM (inactive) | 5.33 µM (inactive) | 2.68 µM (inactive) | 15.3 µM (inactive) | 2.15 µM (inactive) | 4.04 µM (inactive) | 13.9 µM (inactive)
